Columns and labels:
[1] = biological target: Calcium/calmodulin-dependent protein kinase type II subunit gamma (Homo sapiens) (UniProt Q13555); details: Compound concentration 1000.0 nM
[2] = system: Epidermal growth factor receptor (Homo sapiens), P00533 [UNDEFINED MUTATION]; details: Compound concentration 1000.0 nM
[3] = biological target: Receptor tyrosine-protein kinase erbB-3 (Homo sapiens) (UniProt P21860); details: Compound concentration 1000.0 nM
[4] = biological target: Glycogen synthase kinase-3 alpha (Homo sapiens) (UniProt P49840); details: Compound concentration 1000.0 nM
Chain of Glycogen synthase kinase-3 alpha (Homo sapiens) (P49840 2-483 limits assumed): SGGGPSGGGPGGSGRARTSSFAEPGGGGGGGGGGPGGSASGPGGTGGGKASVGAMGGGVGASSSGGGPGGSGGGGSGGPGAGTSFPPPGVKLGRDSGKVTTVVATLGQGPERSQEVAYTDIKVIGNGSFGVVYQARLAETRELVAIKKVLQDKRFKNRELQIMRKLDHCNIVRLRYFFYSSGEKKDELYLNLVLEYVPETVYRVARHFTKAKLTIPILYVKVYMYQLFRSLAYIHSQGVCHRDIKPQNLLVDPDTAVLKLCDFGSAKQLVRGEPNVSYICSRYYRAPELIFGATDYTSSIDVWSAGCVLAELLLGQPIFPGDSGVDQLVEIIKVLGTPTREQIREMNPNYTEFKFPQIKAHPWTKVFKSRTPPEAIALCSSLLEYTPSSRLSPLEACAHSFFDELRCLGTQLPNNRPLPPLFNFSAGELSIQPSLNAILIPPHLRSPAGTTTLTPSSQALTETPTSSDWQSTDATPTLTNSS

[5] = biological target: Serine/threonine-protein kinase 24 (Homo sapiens) (UniProt Q9Y6E0); details: Compound concentration 1000.0 nM
[6] = biological target: T1, Muscle, skeletal receptor tyrosine-protein kinase (Homo sapiens) (UniProt O15146); details: Compound concentration 1000.0 nM
T1 sequence (whole entry): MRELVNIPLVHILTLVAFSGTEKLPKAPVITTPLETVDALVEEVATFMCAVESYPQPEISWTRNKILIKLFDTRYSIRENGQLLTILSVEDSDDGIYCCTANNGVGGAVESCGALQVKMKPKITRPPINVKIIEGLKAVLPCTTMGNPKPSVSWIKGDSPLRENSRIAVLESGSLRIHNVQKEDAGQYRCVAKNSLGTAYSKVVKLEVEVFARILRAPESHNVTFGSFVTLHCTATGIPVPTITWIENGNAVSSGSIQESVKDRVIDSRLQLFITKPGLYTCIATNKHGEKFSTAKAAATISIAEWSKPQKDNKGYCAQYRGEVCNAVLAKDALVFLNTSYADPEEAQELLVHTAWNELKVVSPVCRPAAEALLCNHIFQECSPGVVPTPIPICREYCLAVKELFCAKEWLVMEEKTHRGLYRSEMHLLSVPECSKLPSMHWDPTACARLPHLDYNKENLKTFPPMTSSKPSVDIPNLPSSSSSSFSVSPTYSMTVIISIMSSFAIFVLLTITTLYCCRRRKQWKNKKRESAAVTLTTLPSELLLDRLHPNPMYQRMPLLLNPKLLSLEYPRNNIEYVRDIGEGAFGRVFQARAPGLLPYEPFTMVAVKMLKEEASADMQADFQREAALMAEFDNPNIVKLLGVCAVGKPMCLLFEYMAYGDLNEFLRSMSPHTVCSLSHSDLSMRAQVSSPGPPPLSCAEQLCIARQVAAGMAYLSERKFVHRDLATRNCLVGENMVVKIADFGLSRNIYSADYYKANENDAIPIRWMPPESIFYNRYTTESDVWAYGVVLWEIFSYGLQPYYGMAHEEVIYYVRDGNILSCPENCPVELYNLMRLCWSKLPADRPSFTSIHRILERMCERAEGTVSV

[7] = biological target: Serine/threonine-protein kinase Nek4 (Homo sapiens) (UniProt P51957); details: Compound concentration 1000.0 nM
Chain of Serine/threonine-protein kinase Nek4 (Homo sapiens) (P51957 whole entry, looked up, canonical isoform): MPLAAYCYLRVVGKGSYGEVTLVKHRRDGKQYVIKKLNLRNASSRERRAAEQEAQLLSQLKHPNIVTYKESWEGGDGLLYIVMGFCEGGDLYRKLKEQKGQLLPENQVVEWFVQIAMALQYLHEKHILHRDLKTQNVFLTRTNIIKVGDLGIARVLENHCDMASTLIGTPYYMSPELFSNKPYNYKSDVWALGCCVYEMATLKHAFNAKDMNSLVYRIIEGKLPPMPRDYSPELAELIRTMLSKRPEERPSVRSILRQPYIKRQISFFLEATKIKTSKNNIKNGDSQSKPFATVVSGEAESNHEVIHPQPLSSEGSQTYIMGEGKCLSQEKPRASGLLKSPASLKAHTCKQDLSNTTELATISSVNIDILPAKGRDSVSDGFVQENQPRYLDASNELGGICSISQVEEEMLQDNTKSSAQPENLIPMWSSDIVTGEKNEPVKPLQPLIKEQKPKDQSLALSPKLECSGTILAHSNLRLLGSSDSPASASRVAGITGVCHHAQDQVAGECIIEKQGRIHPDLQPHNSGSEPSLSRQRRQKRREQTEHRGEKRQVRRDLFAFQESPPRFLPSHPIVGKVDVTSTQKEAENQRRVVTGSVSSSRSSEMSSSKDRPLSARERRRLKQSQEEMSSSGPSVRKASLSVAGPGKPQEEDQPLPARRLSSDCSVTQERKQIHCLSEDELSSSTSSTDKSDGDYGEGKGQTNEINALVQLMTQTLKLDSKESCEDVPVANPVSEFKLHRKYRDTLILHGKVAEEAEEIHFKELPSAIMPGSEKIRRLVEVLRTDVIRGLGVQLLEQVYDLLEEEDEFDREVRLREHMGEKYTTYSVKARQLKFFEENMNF

[8] = biological target: Phosphorylase b kinase gamma catalytic chain, skeletal muscle/heart isoform (Homo sapiens) (UniProt Q16816); details: Compound concentration 1000.0 nM
[9] = biological target: T2, cGMP-dependent protein kinase 2 (Homo sapiens) (UniProt Q13237); details: Compound concentration 1000.0 nM
T2 sequence (whole entry): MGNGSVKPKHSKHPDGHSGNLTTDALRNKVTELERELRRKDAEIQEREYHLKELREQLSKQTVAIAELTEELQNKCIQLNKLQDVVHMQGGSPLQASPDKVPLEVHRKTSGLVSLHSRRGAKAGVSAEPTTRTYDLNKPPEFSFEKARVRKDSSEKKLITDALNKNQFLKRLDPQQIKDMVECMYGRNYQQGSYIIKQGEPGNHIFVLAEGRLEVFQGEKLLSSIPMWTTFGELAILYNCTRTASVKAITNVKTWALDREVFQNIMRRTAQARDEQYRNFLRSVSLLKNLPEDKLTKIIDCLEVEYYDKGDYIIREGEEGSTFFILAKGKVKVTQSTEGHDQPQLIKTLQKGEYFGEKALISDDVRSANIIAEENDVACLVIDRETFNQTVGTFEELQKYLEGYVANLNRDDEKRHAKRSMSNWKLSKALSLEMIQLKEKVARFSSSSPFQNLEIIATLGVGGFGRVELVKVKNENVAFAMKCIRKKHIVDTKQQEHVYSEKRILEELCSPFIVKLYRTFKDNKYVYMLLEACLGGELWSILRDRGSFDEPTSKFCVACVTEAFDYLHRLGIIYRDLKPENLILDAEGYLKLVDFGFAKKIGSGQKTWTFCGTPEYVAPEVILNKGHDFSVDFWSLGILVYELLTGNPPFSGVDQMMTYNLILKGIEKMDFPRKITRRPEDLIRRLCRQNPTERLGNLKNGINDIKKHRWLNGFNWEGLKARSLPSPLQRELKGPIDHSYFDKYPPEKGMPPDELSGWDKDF

[10] = biological target: Ribosomal protein S6 kinase alpha-1 (Homo sapiens) (UniProt Q15418); details: Compound concentration 1000.0 nM
[11] = biological target: T3, Serine/threonine-protein kinase Sgk1 (Homo sapiens) (UniProt O00141); details: Compound concentration 1000.0 nM
T3 sequence (whole entry): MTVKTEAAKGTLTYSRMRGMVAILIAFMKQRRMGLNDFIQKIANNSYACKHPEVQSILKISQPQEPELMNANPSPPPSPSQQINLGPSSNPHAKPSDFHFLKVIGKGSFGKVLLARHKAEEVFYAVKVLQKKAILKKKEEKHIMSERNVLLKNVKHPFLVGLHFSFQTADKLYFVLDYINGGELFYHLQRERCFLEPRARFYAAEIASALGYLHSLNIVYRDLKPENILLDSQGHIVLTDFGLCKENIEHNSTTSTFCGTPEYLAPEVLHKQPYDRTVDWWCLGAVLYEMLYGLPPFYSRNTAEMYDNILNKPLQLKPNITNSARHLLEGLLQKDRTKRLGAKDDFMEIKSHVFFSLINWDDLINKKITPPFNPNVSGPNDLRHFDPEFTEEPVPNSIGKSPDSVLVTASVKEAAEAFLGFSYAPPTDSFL

[12] = biological target: Kappa-type opioid receptor (Homo sapiens) (UniProt P41145); details: Compound concentration 10.0 uM
Chain of Kappa-type opioid receptor (Homo sapiens) (P41145 whole entry): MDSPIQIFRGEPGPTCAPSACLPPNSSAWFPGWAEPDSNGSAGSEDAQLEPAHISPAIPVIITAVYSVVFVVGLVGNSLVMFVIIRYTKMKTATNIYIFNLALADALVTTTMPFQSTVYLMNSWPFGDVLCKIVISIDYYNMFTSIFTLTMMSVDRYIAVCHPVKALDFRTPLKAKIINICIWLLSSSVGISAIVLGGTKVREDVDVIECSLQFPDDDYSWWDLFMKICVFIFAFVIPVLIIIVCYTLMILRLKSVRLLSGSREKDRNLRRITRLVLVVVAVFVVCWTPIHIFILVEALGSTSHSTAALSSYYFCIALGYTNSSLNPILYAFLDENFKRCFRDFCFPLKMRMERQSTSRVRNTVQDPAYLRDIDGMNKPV

[13] = biological target: Histamine H3 receptor (Homo sapiens) (UniProt Q9Y5N1); details: Compound concentration 10.0 uM

Chain of Receptor tyrosine-protein kinase erbB-3 (Homo sapiens) (P21860 whole entry): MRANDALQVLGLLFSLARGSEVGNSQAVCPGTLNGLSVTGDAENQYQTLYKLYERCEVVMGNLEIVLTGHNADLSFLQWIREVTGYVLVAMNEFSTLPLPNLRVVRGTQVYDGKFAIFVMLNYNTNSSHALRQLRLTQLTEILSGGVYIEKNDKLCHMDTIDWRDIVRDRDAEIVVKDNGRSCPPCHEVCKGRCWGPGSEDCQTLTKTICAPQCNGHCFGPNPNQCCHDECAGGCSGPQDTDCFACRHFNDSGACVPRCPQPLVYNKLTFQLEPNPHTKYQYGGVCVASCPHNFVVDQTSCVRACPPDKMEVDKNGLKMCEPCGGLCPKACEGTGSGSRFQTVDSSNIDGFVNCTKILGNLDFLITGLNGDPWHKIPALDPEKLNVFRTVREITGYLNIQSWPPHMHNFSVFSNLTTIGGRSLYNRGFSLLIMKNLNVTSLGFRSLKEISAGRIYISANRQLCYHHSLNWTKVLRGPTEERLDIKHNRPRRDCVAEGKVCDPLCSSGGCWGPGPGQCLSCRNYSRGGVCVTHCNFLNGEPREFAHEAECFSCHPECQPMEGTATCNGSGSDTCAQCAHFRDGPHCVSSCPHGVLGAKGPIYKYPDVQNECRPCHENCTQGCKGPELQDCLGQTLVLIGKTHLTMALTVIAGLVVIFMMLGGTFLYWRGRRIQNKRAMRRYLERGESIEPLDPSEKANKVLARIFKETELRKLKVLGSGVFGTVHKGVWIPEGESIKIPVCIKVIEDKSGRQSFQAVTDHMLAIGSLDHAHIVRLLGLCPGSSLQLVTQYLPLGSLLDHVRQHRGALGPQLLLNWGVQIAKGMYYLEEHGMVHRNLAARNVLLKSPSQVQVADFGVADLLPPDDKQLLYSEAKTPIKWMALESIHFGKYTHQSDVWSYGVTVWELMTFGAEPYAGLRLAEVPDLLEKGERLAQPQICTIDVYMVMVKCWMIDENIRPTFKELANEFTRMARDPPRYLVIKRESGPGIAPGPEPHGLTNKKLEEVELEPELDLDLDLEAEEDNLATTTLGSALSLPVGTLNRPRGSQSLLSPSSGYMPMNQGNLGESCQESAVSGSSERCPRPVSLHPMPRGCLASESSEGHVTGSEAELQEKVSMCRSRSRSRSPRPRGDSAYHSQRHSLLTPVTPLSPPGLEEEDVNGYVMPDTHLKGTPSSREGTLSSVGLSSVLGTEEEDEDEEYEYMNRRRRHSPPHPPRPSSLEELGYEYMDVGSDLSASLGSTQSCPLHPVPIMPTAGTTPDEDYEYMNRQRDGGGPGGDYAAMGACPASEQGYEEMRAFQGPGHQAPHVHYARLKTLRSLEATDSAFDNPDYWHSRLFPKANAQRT
Chain of Calcium/calmodulin-dependent protein kinase type II subunit gamma (Homo sapiens) (Q13555 whole entry): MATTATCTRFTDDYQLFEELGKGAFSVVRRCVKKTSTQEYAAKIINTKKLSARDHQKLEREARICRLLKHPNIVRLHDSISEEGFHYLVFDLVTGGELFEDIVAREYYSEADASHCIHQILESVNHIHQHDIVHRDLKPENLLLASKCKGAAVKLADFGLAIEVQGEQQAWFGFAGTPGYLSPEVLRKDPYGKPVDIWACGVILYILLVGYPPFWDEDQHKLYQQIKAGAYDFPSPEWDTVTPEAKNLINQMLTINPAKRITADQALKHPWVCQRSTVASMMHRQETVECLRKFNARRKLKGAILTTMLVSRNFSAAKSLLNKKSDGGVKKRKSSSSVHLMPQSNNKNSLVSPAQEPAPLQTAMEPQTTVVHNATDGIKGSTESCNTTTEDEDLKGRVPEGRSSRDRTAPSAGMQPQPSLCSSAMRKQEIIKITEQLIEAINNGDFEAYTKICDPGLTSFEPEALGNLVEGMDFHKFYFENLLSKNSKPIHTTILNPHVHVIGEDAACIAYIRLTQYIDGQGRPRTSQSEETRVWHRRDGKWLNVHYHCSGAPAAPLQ
Chain of Epidermal growth factor receptor (Homo sapiens), P00533 [UNDEFINED MUTATION] (P00533 whole entry, looked up, change not shown): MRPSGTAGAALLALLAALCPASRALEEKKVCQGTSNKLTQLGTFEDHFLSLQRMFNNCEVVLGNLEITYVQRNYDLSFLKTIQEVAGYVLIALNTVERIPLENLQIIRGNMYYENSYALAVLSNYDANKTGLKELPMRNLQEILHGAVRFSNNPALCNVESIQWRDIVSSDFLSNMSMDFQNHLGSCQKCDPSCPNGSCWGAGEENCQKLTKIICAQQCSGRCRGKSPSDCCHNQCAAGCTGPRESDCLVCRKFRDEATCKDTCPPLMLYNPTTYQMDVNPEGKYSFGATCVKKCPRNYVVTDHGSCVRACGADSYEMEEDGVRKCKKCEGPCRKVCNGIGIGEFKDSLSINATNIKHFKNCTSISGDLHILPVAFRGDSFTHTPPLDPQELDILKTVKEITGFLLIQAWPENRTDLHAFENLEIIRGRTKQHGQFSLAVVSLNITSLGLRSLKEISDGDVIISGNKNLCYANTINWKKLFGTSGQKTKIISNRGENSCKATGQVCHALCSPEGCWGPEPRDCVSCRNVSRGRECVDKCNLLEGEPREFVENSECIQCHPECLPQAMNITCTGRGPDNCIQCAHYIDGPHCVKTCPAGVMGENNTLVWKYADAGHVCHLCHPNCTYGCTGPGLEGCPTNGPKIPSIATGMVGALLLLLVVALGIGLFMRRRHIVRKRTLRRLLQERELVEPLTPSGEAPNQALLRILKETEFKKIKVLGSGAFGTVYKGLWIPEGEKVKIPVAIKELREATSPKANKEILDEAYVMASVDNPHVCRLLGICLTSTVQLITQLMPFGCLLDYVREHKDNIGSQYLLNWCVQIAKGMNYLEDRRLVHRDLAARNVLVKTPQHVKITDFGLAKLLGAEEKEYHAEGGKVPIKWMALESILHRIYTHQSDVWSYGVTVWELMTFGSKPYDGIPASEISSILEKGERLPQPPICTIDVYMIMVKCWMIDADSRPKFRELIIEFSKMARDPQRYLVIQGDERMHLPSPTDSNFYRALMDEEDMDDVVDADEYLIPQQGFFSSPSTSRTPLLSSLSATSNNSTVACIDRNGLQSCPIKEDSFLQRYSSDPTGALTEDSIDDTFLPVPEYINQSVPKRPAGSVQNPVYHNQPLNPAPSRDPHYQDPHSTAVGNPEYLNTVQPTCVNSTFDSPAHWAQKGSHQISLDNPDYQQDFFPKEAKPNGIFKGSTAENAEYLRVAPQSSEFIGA

CN(C)C(=O)Cn1cc(-c2nc(C3(c4ccc(-c5cnc(N)nc5)cc4)CC3)no2)cn1 [BI 0153]
inactive: residual activity [1] 98% | residual activity [2] 100% | residual activity [3] 87% | residual activity [4] 100% | residual activity [5] 100% | residual activity [6] 100% | residual activity [7] 95% | residual activity [8] 97% | residual activity [9] 100% | residual activity [10] 100% | residual activity [11] 96% | inhibition [12] 16.2% | inhibition [13] 3.45%

CN(C)C(=O)Cn1cc(-c2nc([C@@](C)(c3ccc(-c4cnc(N)nc4)cc3)C3CC3)no2)cn1 [BI 665915]
inactive: residual activity [1] 100% | residual activity [2] 100% | residual activity [3] 95% | residual activity [4] 100% | residual activity [5] 100% | residual activity [6] 100% | residual activity [7] 88% | residual activity [8] 77% | residual activity [9] 85% | residual activity [10] 99% | residual activity [11] 91% | inhibition [12] 33.9% | inhibition [13] 11%

— ChEMBL document CHEMBL4507276 (2021)
